Source: US20140357512A1, “HISTONE DEACETYLASE (HDAC) BIOMARKERS IN MULTIPLE MYELOMA” (priority 2013, published 2014)

System: human myeloma cell line MM.1S
Test: SILAC acetylated-lysine peptide profiling, HDAC inhibitor vs DMSO (light/heavy ratio)
Assay type: cell-based
Excerpt: An embodiment of the invention comprises utilizing the SILAC method in order to quantitate changes in protein expression between two or more populations of cells. The SILAC method is a technique based on mass spectrometry that detects differences in protein abundance among samples using non-radioactive isotopic labeling. The SILAC method is known in the art, and described in detail in Ong et al., “Stable Isotope Labeling by Amino Acids in Cell Culture, SILAC, as a Simple and Accurate Approach to Expression Proteomics”, Molecular & Cellular Proteomics, vol. 1, pp. 376-386 (2002), which is incorporated herein by reference in its entirety.
Briefly, the SILAC method involves growing two populations of cells in cell culture. The first population of cells is grown in growth media containing normal amino acids (“normal media”). The second population of cells is grown in media lacking a standard essential amino acid (such as lysine), but is then supplemented with a non-radioactive, isotopically labeled form of that essential amino acid (such as lysine labeled with ^13C atoms, rather than normal ^12C atoms), which is called “heavy media”. When the two populations of cells are each growing in the medium, they incorporate the amino acids into all of their proteins. The growth of cells maintained in the heavy media is no different from that in normal media. All peptides containing the heavy amino acids are heavier than their normal counterparts. The cells from each of the two populations of cells are lysed. The lysates from each of the two cell populations are then combined. The combined cell lysates are then analyzed by mass spectrometry. Pairs of chemically identical peptides of different stable isotope composition can be differentiated in a mass spectrometer due to their difference in mass. The ratio of peak intensities in the mass spectrum for such peptide pairs reflects the abundance ratio for the two proteins.
This example describes SILAC studies that were performed to compare the effects of three different HDAC inhibitors (Compound A, Compound B, and tubastatin A) to a control on a human multiple myeloma cell line. The HDAC inhibitors were also compared amongst themselves to determine differences in their effects.
A human myeloma cell line MM.1S was grown using either ^12C (light) or ^13C (heavy) lysine containing culture medium. The “heavy” cells were treated with DMSO as the control, and the “light” cells were treated with a single HDAC inhibitor at 37° C. for 6 hours. The heavy and light cells were lysed, and the lysates were mixed in 1:1 ratio and digested with the protease trypsin. The acetylated lysine containing peptides (due to the action of the HDAC inhibitor) in the digested peptide pool were captured by a non-specific anti-acetylated lysine antibody cocktail (the antibodies identify both light and heavy acetylated peptides), and subjected to mass spectrometry analysis in order to identify thousands of individual peptides.
Thousands of peptides were identified in pairs (^12C and ^13C) due to their known mass differences. The amino acid sequence and quantitative ratio (Light/Heavy) of a given peptide in two differentially treated cell lysates were then determined and annotated with their possible protein (gene) sources.
As stated above, three HDAC inhibitors (Compound A, Compound B, and Tubastatin A) were used. Thus, the SILAC method was performed three times, with a different HDAC inhibitor compared to a control each time. Accordingly, there are three pairs of quantitative data in the table below, i.e., Compound A:DMSO, Compound B:DMSO, and Tubastatin A:DMSO. A cut-off of 1.30 fold of change (increase or decrease) was then used to determine “changed” or “+” in the table, and any peptides with a fold of change less than 1.3 fold were determined to be “unchanged” or “0” in the table. Those peptides that were not identified were marked as “NA” in the table. […]

Compound: O=C(NO)c1cnc(NC2(c3cccc(F)c3)CCCCC2)nc1 [Compound B, 2-((1-(3-fluorophenyl)cyclohexyl)amino)-N-hydroxypyrimidine-5-carboxamide]
- L/H ratio of acetylated peptide FEK(ac)[…] (SEQ ID NO: 32) (DDX17 [132], log 2 scale, drug vs DMSO): 0.00
- L/H ratio of acetylated peptide (DK(ac)WLCPLSGK (SEQ ID NO: 452), Isoform 2 of Serrate RNA effector molecule homolog [712], SRRT): 0.42 log 2
- L/H ratio of acetylated peptide (DK(ac)[…] (SEQ ID NO: 456), F-box-like/WD repeat-containing protein TBL1XR1 [102], TBL1XR1): 0.86 log 2
- L/H ratio of acetylated peptide ELNK(ac)ILEGR (SEQ ID NO: 2) (DLAT [466], log 2 scale, drug vs DMSO): 0.47
- light to heavy ratio (L/H ratio) of acetylated peptide, log 2 scale (DLEK(ac)WQNNLLPSR (SEQ ID NO: 211), 40S ribosomal protein 515a [88], RPS15A): 0.00
- light to heavy ratio (L/H ratio) of acetylated peptide, log 2 scale (DLMTDLK(ac)SEISGDLAR (SEQ ID NO: 129), Annexin A6 [418], ANXA6): 0.00
- light to heavy ratio (L/H ratio) of acetylated peptide TFEK(ac)SMMNLQTK (SEQ ID NO: 354) (DNA topoisomerase 1 [642], TOP1, drug:DMSO): 0.46 log 2
- L/H ratio of acetylated peptide VVK(ac)HPIFER (SEQ ID NO: 35) (DNAJB11 [247], log 2 scale, drug vs DMSO): 0.00
- L/H ratio of acetylated peptide (DVFNK(ac)GYGFGMVK (SEQ ID NO: 467), Isoform 1 of Voltage-dependent anion-selective channel protein 3 [20], VDAC3): −0.73 log 2
- light to heavy ratio (L/H ratio) of acetylated peptide, log 2 scale (DVK(ac)FGADAR (SEQ ID NO: 173), 60 kDa heat shock protein mitochondrial [31], HSPD1): 0.00
- L/H ratio of acetylated peptide (DVTK(ac)AMDEK (SEQ ID NO: 426), Isoform 2 of 6-phosphofructokinase muscle type [329], PFKM): 0.53 log 2
- L/H ratio of acetylated peptide SFDSEFK(ac)LACK (SEQ ID NO: 8) (DYNC1H1 [4283], log 2 scale, drug vs DMSO): 0.51
- light to heavy ratio (L/H ratio) of acetylated peptide DTYIENEK(ac)LISGK (SEQ ID NO: 352) (Dolichyl-diphosphooligosaccharide--protein glycosyltransferase subunit 1 precursor [626], RPN1, drug:DMSO): 0.77 log 2
- light to heavy ratio (L/H ratio) of acetylated peptide YNIEK(ac)DIAAHIK (SEQ ID NO: 553) (Dynein light chain 1 cytoplasmic [36], gene DYNLL1, inhibitor:DMSO): 0.00 log 2
- light to heavy ratio (L/H ratio) of acetylated peptide YNIEK(ac)DIAAYIK (SEQ ID NO: 331) (Dynein light chain 2 cytoplasmic [36], DYNLL2, drug:DMSO): −0.45 log 2
- L/H ratio of acetylated peptide (EFTK(ac)LEEVLTNK (SEQ ID NO: 400), Glutathione S-transferase omega-1 [152], GSTO1): −0.60 log 2
- L/H ratio of acetylated peptide TSK(ac)NK(ac)SSLSR (SEQ ID NO: 14) (EP300 [1558:1560], log 2 scale, drug vs DMSO): 0.43
- L/H ratio of acetylated peptide (ESESVDK(ac)VMDQK (SEQ ID NO: 404), Isoform 1 of Heterogeneous nuclear ribonucleoprotein D0 [153], HNRNPD): −0.53 log 2
- light to heavy ratio (L/H ratio) of acetylated peptide, log 2 scale (EVHK(ac)[…] (SEQ ID NO: 181), Isoform 1 of L-lactate dehydrogenase A chain [232], LDHA): 0.00
- light to heavy ratio (L/H ratio) of acetylated peptide, log 2 scale (EVQTNDLK(ac)EVVNK (SEQ ID NO: 223), 40S ribosomal protein S3a [182], SNORD73A, RPS3A): 0.00
- light to heavy ratio (L/H ratio) of acetylated peptide YLAEK(ac)YEWDVAEAR (SEQ ID NO: 332) (Elongation factor 2 [638], EEF2, drug:DMSO): −0.40 log 2
- light to heavy ratio (L/H ratio) of acetylated peptide TFK(ac)GVVDVVMK (SEQ ID NO: 550) (Elongation factor G 2 mitochondrial precursor [265], gene GFM2, inhibitor:DMSO): 0.00 log 2
- light to heavy ratio (L/H ratio) of acetylated peptide KSDYIK(ac)LYVR (SEQ ID NO: 315) (Endoplasmin [410], HSP90B1, drug:DMSO): 0.00 log 2
- light to heavy ratio (L/H ratio) of acetylated peptide EK(ac)[…] (SEQ ID NO: 314) (Endoplasmin[ 142], HSP90B1, drug:DMSO): 0.00 log 2
- light to heavy ratio (L/H ratio) of acetylated peptide EVEEDEYK(ac)AFYK (SEQ ID NO: 261) (Endoplasmin[ 356], HSP90B1, drug:DMSO): 0.00 log 2
- light to heavy ratio (L/H ratio) of acetylated peptide LMCK(ac)PIFSK (SEQ ID NO: 335) (Eukaryotic translation initiation factor 2 subunit 3 [312], EIF2S3, drug:DMSO): 0.49 log 2
- light to heavy ratio (L/H ratio) of acetylated peptide SHLAK(ac)EGLYQYK (SEQ ID NO: 533) (Eukaryotic translation initiation factor 3 subunit A [68], gene EIF3A, inhibitor:DMSO): 0.00 log 2
- L/H ratio of acetylated peptide (FAFK(ac)EVEVQAK (SEQ ID NO: 397), Putative rRNA methyltransferase 3 [218], FTSJ3): 0.74 log 2
- L/H ratio of acetylated peptide (FEDENFHYK(ac)HDR (SEQ ID NO: 431), Peptidyl-prolyl cis-trans isomerase D [111], PPID): 0.46 log 2
- L/H ratio of acetylated peptide (FGIAAK(ac)YMLDCR (SEQ ID NO: 468), Isoform 1 of Voltage-dependent anion-selective channel protein 3 [224], VDAC3): 0.43 log 2
- L/H ratio of acetylated peptide (FK(ac)ECLDK (SEQ ID NO: 420), Isoform 2 of N-alpha-acetyltransferase 15 NatA auxiliary subunit [307], NAA15): 0.60 log 2
- light to heavy ratio (L/H ratio) of acetylated peptide, log 2 scale (FLEQQNK(ac)[…] (SEQ ID NO: 241), Vimentin [129], VIM): 0.00
